Measured values: PMC9103625, “The Role of the Nucleotides in the Insertion of the bis-Molybdopterin Guanine Dinucleotide Cofactor into apo-Molybdoenzymes” (Molecules, 2022)

How the values were obtained:
[1] = molecular target: T1, MobA (Escherichia coli, UniProt P32173); experiment: conversion to bis-MGD, HPLC of FormA-GMP; format: biochemical; conditions: 3 µM MobA, 1 mM GTP, 1 mM MgCl2, 5 min, room temperature, bis-Mo-MPT from 30 µM YdhV
T1 construct: from plasmid pCT800A, Ni-NTA and size exclusion purified; monomer
T1 sequence (P32173 1-194): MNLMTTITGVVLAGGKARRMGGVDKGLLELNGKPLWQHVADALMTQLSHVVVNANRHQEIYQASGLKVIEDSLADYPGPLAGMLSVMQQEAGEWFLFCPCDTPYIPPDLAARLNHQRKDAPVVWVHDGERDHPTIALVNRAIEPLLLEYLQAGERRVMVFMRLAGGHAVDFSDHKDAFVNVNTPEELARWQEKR

[2] = molecular target: T2, apo-YdhV (Escherichia coli, UniProt P76192); experiment: in vitro reconstitution, gel filtration, HPLC of dephospho-FormA; format: binding; conditions: 1.3 µM apo-YdhV, 7 h, 37 °C, pH 7.2, anaerobic, cofactor from alkaline phosphatase treatment
T2 construct: from plasmid SR153, expressed in E. coli RK5200, Ni-NTA and size exclusion purified; cofactor-free apo-protein
T2 sequence (P76192 1-700): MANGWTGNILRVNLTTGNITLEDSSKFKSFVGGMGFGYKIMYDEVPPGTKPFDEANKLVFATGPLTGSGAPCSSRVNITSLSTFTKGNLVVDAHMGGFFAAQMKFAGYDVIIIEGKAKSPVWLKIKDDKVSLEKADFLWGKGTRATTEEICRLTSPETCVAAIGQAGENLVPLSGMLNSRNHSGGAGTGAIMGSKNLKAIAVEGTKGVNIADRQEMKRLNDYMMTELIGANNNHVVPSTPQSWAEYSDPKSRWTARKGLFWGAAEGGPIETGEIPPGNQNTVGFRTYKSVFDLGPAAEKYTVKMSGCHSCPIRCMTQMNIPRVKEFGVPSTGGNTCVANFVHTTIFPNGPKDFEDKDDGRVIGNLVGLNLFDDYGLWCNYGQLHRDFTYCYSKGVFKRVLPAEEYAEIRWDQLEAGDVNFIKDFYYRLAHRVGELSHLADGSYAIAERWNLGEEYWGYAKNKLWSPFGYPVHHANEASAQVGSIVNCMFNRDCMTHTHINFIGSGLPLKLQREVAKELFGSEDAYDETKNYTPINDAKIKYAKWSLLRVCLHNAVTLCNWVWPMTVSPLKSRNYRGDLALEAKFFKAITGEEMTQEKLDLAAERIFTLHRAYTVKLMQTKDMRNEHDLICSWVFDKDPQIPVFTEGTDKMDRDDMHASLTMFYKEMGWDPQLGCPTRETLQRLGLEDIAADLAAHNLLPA

[3] = molecular target: T3, apo-TorA (Escherichia coli, UniProt P33225); experiment: in vitro reconstitution, gel filtration, HPLC of FormA-GMP; format: binding; conditions: 1.3 µM apo-TorA, bis-MGD extracted from wtTorA, saturation at 25 µM donor, 7 h, 37 °C, pH 7.2, anaerobic
T3 construct: from plasmid pJF119EH, Ni-NTA and size exclusion purified; cofactor-free apo-enzyme reconstituted in vitro
T3 sequence (P33225 40-848): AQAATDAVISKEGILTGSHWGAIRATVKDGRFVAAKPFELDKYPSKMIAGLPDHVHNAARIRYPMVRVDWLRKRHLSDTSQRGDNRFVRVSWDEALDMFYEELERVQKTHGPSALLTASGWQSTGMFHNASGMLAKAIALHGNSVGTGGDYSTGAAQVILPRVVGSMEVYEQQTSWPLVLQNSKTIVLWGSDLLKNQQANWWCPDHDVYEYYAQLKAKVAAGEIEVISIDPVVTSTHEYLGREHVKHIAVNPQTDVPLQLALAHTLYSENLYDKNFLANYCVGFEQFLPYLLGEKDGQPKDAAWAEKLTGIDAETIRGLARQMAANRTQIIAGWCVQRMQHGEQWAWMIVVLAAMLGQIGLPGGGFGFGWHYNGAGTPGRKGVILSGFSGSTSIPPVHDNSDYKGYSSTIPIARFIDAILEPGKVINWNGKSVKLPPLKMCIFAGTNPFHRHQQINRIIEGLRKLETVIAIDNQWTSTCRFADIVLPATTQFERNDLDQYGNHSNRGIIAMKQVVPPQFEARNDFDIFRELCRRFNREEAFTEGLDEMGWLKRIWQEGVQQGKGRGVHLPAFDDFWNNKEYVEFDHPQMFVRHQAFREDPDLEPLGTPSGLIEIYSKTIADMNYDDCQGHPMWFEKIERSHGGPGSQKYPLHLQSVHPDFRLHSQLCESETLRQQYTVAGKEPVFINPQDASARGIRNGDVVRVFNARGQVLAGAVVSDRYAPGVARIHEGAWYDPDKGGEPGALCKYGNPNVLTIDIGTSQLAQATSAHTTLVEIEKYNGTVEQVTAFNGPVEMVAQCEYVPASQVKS

For Nc1nc2c(ncn2[C@@H]2O[C@H](COP(=O)(O)OP(=O)(O)OP(=O)(O)O)[C@@H](O)[C@H]2O)c(=O)[nH]1 [GTP], the “conversion to bis-MGD, HPLC of FormA-GMP” value [1] was “we converted bis-Mo-MPT into bis-MGD by the attachment of nucleotides using MobA and Mg-GTP”.

dephospho-bis-Mo-MPT was tested, and the “% bound at 100 μM donor” value [2] was 25.1%.

With Nc1nc2c(c(=O)[nH]1)N[C@H]1C([S-])=C([S-])[C@@H](COP(=O)([O-])OP(=O)([O-])OC[C@H]3O[C@@H](n4cnc5c(=O)[nH]c(N)nc54)[C@H](O)[C@@H]3O)O[C@H]1N2.Nc1nc2c(c(=O)[nH]1)N[C@H]1C([S-])=C([S-])[C@@H](COP(=O)([O-])OP(=O)([O-])OC[C@H]3O[C@@H](n4cnc5c(=O)[nH]c(N)nc54)[C@H](O)[C@@H]3O)O[C@H]1N2.[O]=[Mo+4] [bis-MGD] the “% bis-MGD saturation (maximum)” value [3] was 61.9%.
